One assay concerns prostate line LNCap. Briefly: In vitro cell culture growth assay (MTS), LNCap.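 Also: viable cell density read by absorbance at 490 nm, growth expressed as percent of vehicle-treated cells on the same plate.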 It counts as cell-based, human. Particulars: LNCap cells, three days after drug treatment.
The target of the next assay is PI3K (Homo sapiens, UniProt P42336). The experiment in a line: Fluorescence polarization assay for PI3K.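 Also: PI3K kinase reaction on PIP2 with ATP, 30-60 min, product sensed by GST-GRP with red probe in fluorescence polarization (mP), controls without enzyme and at zero time.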 It counts as biochemical. Particulars: PI3Kα; read-out: PI3Kα IC50. (In fluorescence polarisation assays a small probe gives low polarisation when free and higher when bound to something large.)
Sequence of PI3K (P42336 whole entry): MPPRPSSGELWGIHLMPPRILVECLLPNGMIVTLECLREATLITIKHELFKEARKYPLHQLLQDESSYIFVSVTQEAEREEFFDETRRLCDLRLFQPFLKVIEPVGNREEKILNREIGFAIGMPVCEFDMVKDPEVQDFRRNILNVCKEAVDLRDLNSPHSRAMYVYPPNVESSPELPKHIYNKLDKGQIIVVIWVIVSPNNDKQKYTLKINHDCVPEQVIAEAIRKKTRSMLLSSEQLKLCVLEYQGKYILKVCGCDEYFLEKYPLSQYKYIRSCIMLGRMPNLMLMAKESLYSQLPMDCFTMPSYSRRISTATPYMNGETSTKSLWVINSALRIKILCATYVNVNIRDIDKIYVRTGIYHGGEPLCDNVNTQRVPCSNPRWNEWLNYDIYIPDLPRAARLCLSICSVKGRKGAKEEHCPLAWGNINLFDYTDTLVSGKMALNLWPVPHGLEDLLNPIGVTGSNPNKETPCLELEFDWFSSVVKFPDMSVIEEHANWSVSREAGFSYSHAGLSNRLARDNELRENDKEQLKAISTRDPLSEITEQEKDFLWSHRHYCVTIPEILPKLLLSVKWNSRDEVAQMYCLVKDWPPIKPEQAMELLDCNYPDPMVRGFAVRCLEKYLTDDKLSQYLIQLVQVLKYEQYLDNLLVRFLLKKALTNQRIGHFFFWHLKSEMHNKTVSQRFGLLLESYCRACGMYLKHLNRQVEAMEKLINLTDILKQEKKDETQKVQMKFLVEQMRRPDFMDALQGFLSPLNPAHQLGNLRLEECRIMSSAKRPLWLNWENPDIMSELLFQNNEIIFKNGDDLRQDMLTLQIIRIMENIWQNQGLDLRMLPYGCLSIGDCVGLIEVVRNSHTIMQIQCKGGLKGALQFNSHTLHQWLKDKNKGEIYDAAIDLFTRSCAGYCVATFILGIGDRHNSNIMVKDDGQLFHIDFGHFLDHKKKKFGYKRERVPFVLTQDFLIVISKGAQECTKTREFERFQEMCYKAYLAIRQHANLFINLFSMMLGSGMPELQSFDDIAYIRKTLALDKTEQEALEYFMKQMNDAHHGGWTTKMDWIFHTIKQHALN
Sequence of PI3K (P27986 whole entry partner): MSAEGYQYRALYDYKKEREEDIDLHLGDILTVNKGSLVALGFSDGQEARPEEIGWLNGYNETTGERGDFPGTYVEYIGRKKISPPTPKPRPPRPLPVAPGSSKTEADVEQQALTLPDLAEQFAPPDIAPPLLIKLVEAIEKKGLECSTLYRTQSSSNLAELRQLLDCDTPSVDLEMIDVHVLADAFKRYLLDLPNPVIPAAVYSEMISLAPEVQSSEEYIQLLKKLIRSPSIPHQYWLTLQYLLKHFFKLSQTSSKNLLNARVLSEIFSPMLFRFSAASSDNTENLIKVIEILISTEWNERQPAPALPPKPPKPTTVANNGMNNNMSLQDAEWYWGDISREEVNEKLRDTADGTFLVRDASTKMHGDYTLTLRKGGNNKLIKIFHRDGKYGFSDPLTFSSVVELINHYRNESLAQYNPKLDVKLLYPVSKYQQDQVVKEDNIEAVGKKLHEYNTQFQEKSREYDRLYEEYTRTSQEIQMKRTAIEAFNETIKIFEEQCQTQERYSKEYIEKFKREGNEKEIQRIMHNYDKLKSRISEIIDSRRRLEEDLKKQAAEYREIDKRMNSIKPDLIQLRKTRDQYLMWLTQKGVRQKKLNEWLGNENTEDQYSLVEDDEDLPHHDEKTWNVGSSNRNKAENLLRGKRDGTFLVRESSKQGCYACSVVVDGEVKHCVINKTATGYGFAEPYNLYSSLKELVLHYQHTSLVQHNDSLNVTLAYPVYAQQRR
The subject of a further assay is breast line MDA468. Briefly: In vitro cell culture growth assay (MTS), MDA468. As to conditions: Homo sapiens, 72 h, MDA468 cells, three days after drug treatment. It counts as cell-based, human. The method, boiled down: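 Growth measured as percent of same-plate vehicle control by MTS metabolic dye conversion (A490). Breast MDA468 and prostate LNCap cells, plated a day ahead, were exposed to compounds for 3 days.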

The structures appear in SMILES notation.

The term IC50 denotes the concentration needed to halve the response being measured.

With `CNC(=O)Nc1ccc(-c2nc(N3CCOCC3)c3cnn(C4CCN(CC(N)=O)CC4)c3n2)cc1` [Example 332, 2-[4-(6-{4-[(methylcarbamoyl)amino]phenyl}-4-morpholin-4-yl-1H-pyrazolo[3,4-d]pyrimidin-1-yl)piperidin-1-yl]acetamide], the IC50 is 600 nM in the assay with prostate line LNCap (Homo sapiens, LNCaP, 72 h); 66 nM on PI3K; 1000 nM in the assay on breast line MDA468.

Regarding `NC(=O)Nc1ccc(-c2nc(N3CCOCC3)c3cnn(C4CCN(C(=O)c5cccnc5)CC4)c3n2)cc1` [Compound 546, 1-(4-{4-morpholin-4-yl-1-[1-(pyridin-3-ylcarbonyl)piperidin-4-yl]-1H-pyrazolo[3,4-d]pyrimidin-6-yl}phenyl)urea], the IC50 in the assay on prostate line LNCap (Homo sapiens, LNCaP, 72 h) stood at 3000 nM; on PI3K, 178 nM; with breast line MDA468, 1800 nM.

Consider `O=C(CCl)N1CCC(n2ncc3c(N4CCOCC4)nc(-c4ccc5[nH]ccc5c4)nc32)CC1` [Compound 93], for which the half-inhibitory concentration (IC50) in the assay with prostate line LNCap (Homo sapiens, LNCaP, 72 h) was determined as 1100 nM; at PI3K, 337 nM; in the assay on breast line MDA468, 1200 nM.

As for `O=C1CCCN1CCn1ncc2c(N3CCOCC3)nc(-c3cccc(O)c3)nc21` [Compound 164], the 50% inhibitory concentration (IC50) worked out at 5700 nM in the assay with prostate line LNCap (Homo sapiens, LNCaP, 72 h); 230 nM at PI3K; 20000 nM with breast line MDA468.

As to `CNC(=O)Nc1ccc(-c2nc(N3CCOCC3)c3cnn(C4CCN(C(=O)c5ccc(C)nc5)CC4)c3n2)cc1` [Example 420, 1-methyl-3-[4-(1-{1-[(6-methylpyridin-3-yl)carbonyl]piperidin-4-yl}-4-morpholin-4-yl-1H-pyrazolo[3,4-d]pyrimidin-6-yl)phenyl]urea], the concentration for half-maximal inhibition (IC50) in the assay with prostate line LNCap (Homo sapiens, LNCaP, 72 h) came to 330 nM; on PI3K, 119 nM; with breast line MDA468 it was 300 nM.

With `CCOC(=O)N1CCC(n2ncc3c(N4CCOCC4)nc(-c4ccc(NC(=O)NC)cc4)nc32)CC1` [Compound 750, ethyl 4-(6-{4-[(methylcarbamoyl)amino]phenyl}-4-morpholin-4-yl-1H-pyrazolo[3,4-d]pyrimidin-1-yl)piperidine-1-carboxylate], the 50% inhibitory concentration (IC50) worked out at 33 nM with prostate line LNCap (Homo sapiens, LNCaP, 72 h); 221 nM at PI3K; 80 nM in the assay on breast line MDA468.

Consider `O=C(NO)Nc1ccc(-c2nc(N3CCOCC3)c3cnn(C4CCN(C(=O)c5cccnc5)CC4)c3n2)cc1` [Compound 550, 1-hydroxy-3-(4-{4-morpholin-4-yl-1-[1-(pyridin-3-ylcarbonyl)piperidin-4-yl]-1H-pyrazolo[3,4-d]pyrimidin-6-yl}phenyl)urea], for which the IC50 with prostate line LNCap (Homo sapiens, LNCaP, 72 h) stood at 10100 nM; at PI3K, 604 nM; in the assay with breast line MDA468, 7200 nM.

Consider `COc1ccc(CN2CCC(n3ncc4c(N5CCOCC5)nc(-c5cccc(O)c5)nc43)CC2)cc1O` [Example 20], for which the IC50 with prostate line LNCap (Homo sapiens, LNCaP, 72 h) is 130 nM; on PI3K, 21 nM; in the assay on breast line MDA468, 700 nM.

Turning to `CNC(=O)Nc1ccc(-c2nc(N3CCOCC3)c3cnn(C4CCN(Cc5ccc(F)nc5)CC4)c3n2)cc1` [Example 387, 1-[4-(1-{1-[(6-fluoropyridin-3-yl)methyl]piperidin-4-yl}-4-morpholin-4-yl-1H-pyrazolo[3,4-d]pyrimidin-6-yl)phenyl]-3-methylurea], the half-inhibitory concentration (IC50) in the assay on prostate line LNCap (Homo sapiens, LNCaP, 72 h) was found to be 35 nM; at PI3K it was 109 nM; with breast line MDA468, 100 nM.

`CNC(=O)Nc1ccc(-c2nc(N3CCOCC3)c3cn[nH]c3n2)cc1Cl` [Compound 940, 1-[2-chloro-4-(4-morpholin-4-yl-1H-pyrazolo[3,4-d]pyrimidin-6-yl)phenyl]-3-methylurea]: the 50% inhibitory concentration (IC50) in the assay on prostate line LNCap (Homo sapiens, LNCaP, 72 h) turned out to be 1950 nM; on PI3K, 401 nM; in the assay with breast line MDA468, 6000 nM.

Take `CS(=O)(=O)Nc1cccc(-c2nc(N3CCOCC3)c3cnn(-c4ccccc4)c3n2)c1` [Compound 116]: the 50% inhibitory concentration (IC50) came to 20000 nM with prostate line LNCap (Homo sapiens, LNCaP, 72 h); 111 nM on PI3K; 60000 nM in the assay with breast line MDA468.

In the case of `O=S(=O)(c1ccccc1)N1CCC(n2ncc3c(N4CCOCC4)nc(-c4ccc5[nH]ccc5c4)nc32)CC1` [Compound 92], the 50% inhibitory concentration (IC50) with prostate line LNCap (Homo sapiens, LNCaP, 72 h) turned out to be 8000 nM; on PI3K, 4640 nM; in the assay on breast line MDA468, 2500 nM.

As for `CC(=O)Nc1ccc(-c2nc(N3CCOCC3)c3cnn(C4CCN(Cc5ccccc5)CC4)c3n2)cc1[N+](=O)[O-]` [Compound 184, N-{4-[1-(1-benzylpiperidin-4-yl)-4-morpholin-4-yl-1H-pyrazolo[3,4-d]pyrimidin-6-yl]-2-nitrophenyl}acetamide], the IC50 stood at 60000 nM with prostate line LNCap (Homo sapiens, LNCaP, 72 h); 3080 nM at PI3K; 60000 nM with breast line MDA468.

As for `O=C(Nc1ccncc1)Nc1ccc(-c2nc(N3CCOCC3)c3cnn(C4CCN(Cc5cccnc5)CC4)c3n2)cc1F` [Compound 352, 1-(2-fluoro-4-{4-morpholin-4-yl-1-[1-(pyridin-3-ylmethyl)piperidin-4-yl]-1H-pyrazolo[3,4-d]pyrimidin-6-yl}phenyl)-3-pyridin-4-ylurea], the 50% inhibitory concentration (IC50) in the assay with prostate line LNCap (Homo sapiens, LNCaP, 72 h) is 27 nM; on PI3K it was 35 nM; in the assay with breast line MDA468 it was 100 nM.

Consider `O=C(NCCF)Nc1ccc(-c2nc(N3CCOCC3)c3cnn(C4CCN(CC(F)(F)F)CC4)c3n2)cc1` [Compound 783, 1-(2-fluoroethyl)-3-(4-{4-morpholin-4-yl-1-[1-(2,2,2-trifluoroethyl)piperidin-4-yl]-1H-pyrazolo[3,4-d]pyrimidin-6-yl}phenyl)urea], for which the IC50 in the assay with prostate line LNCap (Homo sapiens, LNCaP, 72 h) worked out at 60 nM; at PI3K, 1120 nM; in the assay with breast line MDA468, 390 nM.

`CNC(=O)Nc1ccc(-c2nc(N3CCOCC3)c3cnn(C4CCN(Cc5cccnc5)CC4)c3n2)cc1F` [Compound 597, 1-(2-fluoro-4-{4-morpholin-4-yl-1-[1-(pyridin-3-ylmethyl)piperidin-4-yl]-1H-pyrazolo[3,4-d]pyrimidin-6-yl}phenyl)-3-methylurea]: the IC50 was determined as 27 nM in the assay on prostate line LNCap (Homo sapiens, LNCaP, 72 h); 246 nM on PI3K; 180 nM with breast line MDA468.

With `CCNC(=O)Nc1ccc(-c2nc(N3CCOCC3)c3cnn(C4CCN(C(=O)c5ccccc5)CC4)c3n2)cc1` [Compound 626, 1-{4-[1-(1-benzoylpiperidin-4-yl)-4-morpholin-4-yl-1H-pyrazolo[3,4-d]pyrimidin-6-yl]phenyl}-3-ethylurea], the IC50 in the assay with prostate line LNCap was less than 27 nM; on PI3K, 355 nM; in the assay with breast line MDA468, 38 nM.

As to `O=C(Nc1ccccc1)Nc1ccc(-c2nc(N3CCOCC3)c3cnn(C4CCN(C(=O)c5ccccc5)CC4)c3n2)cc1` [Compound 623, 1-{4-[1-(1-benzoylpiperidin-4-yl)-4-morpholin-4-yl-1H-pyrazolo[3,4-d]pyrimidin-6-yl]phenyl}-3-phenylurea], the IC50 was less than 27 nM in the assay with prostate line LNCap (Homo sapiens, LNCaP, 72 h); 16 nM on PI3K; 50 nM in the assay with breast line MDA468.

In the case of `CNC(=O)Nc1ccc(-c2nc(N3CCOCC3)c3cnn(C4CCN(CC(=O)c5ccccc5)CC4)c3n2)cc1` [Example 333, 1-methyl-3-(4-{4-morpholin-4-yl-1-[1-(2-oxo-2-phenylethyl)piperidin-4-yl]-1H-pyrazolo[3,4-d]pyrimidin-6-yl}phenyl)urea], the IC50 in the assay with prostate line LNCap (Homo sapiens, LNCaP, 72 h) is 27 nM; at PI3K, 23 nM; with breast line MDA468 it was 200 nM.

Take `Nc1ccc(-c2nc(N3CCOCC3)c3cnn(C4CCC5(CC4)OCCO5)c3n2)cc1` [Compound 565, 4-[1-(1,4-dioxaspiro[4.5]dec-8-yl)-4-morpholin-4-yl-1H-pyrazolo[3,4-d]pyrimidin-6-yl]aniline]: the half-inhibitory concentration (IC50) in the assay with prostate line LNCap (Homo sapiens, LNCaP, 72 h) is 1100 nM; at PI3K, 2050 nM; in the assay with breast line MDA468, 7200 nM.

(Values after US20080234262A1 (Wyeth, priority 2007, published 2008).)
